We go through 15 compounds from patent US20080221205A1, “FURAN DERIVATIVES FOR PREVENTING AND CURING OSTEOPOROSIS AND PHARMACEUTICAL COMPOSITIONS CONTAINING THE SAME” (priority 2002, published 2008).

This experiment concerns osteoclast formation. Briefly: Inhibition rate of furan derivatives versus osteoclast formation (TRAP staining). Conditions: TRAP-positive multinucleated cells, untreated control set as 100%. It is filed as cell-based, mice. The protocol: First, bone marrow cells were isolated, as follow. After sacrificing 7-9 week female mice by cervical dislocation, femur and tibia were excised aseptically while removing attached soft tissues. After cutting both ends of long bones, 1 ml of an enzyme solution, containing 0.1% collagenase (Gibco), 0.05% trypsin and 0.5 mM EDTA (Gibco), was injected to the bone marrow cavity at one end using a syringe with a 26-guage needle, and bone marrow was then collected. After shaking the recovered bone marrow for 30 min, bone marrow cells were collected, and cultured in α-minimum essential medium (α-MEM) supplemented with 10% FBS for 24 hrs. Then, non-adherent cells were collected, which are osteoclast pregenitors, aliquotted onto culture plates at a density of 2×10^5 cells per well, and cultured for 8 days in α-MEM supplemented with 20 ng/ml of macrophage-colony stimulating factor (M-CSF, Peprotech, USA) and 30 ng/ml RANKL (Peprotech, USA). During the 8 days of culturing, the cells were treated with the Compound 1. Thereafter, osteoclast formation was investigated by fixing the cultured cells and then carrying out TRAP staining, as described in the following Experimental Example 2.2. In addition, resorption activity of osteoclasts was investigated by measuring the absorption area after removing osteoclasts in cultures in calcium phosphate-coated plates, as described in Experimental Example 2.3, below.
After cell culture, the adherent cells were washed with PBS, and TRAP staining was performed, as follows. After being fixed with citrate-acetate-formaldehyde for 5 min, the cells were incubated for 1 hr in acetate buffer (prewarmed at 37° C., pH 5.0) containing naphthol AS-BI phosphate, fast Garnet GBC and 7 mM tartrate buffer (pH 5.0). TRAP-positive multinucleated cells having 3 or more nuclei were considered as osteoclasts.
Osteoclast pregenitor cells were isolated, and their differentiation to mature osteoclasts was induced, according to the same method as in the Experimental Example 2-1, while treated with each of the furan derivatives of the present invention. According to the same method as in the Experimental Example 2-2, TRAP staining performed, and TRAP-positive multinucleated cells were counted. An inhibition rate of each furan derivative against osteoclast formation was expressed as percentage, wherein the number of stained cells in a control not treated the furan derivative was arbitrarily set as 100% (Tables 14 to 16).

Structures are written as SMILES.

As to `CC(C)OC(=O)c1ccc(COc2cc(Cl)ccc2Cl)o1` [Compound 95], the “Inhibition rate against osteoclast formation, %” value (shortened to “Inhibition rate … %”) stood at 0% (0.1 μM), 0% (1 μM) and 0.97% (10 μM).

With `O=C(Nc1ccc(F)cc1)c1ccc(COc2cccc(Cl)c2)o1` [Compound 141], the “Inhibition rate … %” value (0.1 μM) is 0% and the “Inhibition rate … %” value (1 μM) is listed as 0%.

As to `O=C(O)c1ccc(CSCc2ccccc2)o1` [Compound 120], the “Inhibition rate … %” value runs as follows: (0.1 μM) 0%; (1 μM) 0%.

In the case of `COc1ccccc1NC(=O)c1ccc(COc2ccccc2OC)o1` [Compound 166], the “Inhibition rate … %” value (0.1 μM) was determined as 0% and the “Inhibition rate … %” value (1 μM) was 0%.

With `Cc1cc(C)cc(OCc2ccc(C(=O)Nc3ccccc3F)o2)c1` [Compound 177], the “Inhibition rate … %” value is reported as 0% (0.1 μM) and 0% (1 μM).

Consider `O=C(Nc1ccccc1F)c1ccc(COc2ccc(Cl)cc2)o1` [Compound 178], for which the “Inhibition rate … %” value (0.1 μM) is 0% and the “Inhibition rate … %” value (1 μM) stood at 0%.

`O=Cc1ccc(COC(=O)C(c2ccccc2)(c2ccccc2)c2ccccc2)o1` [Compound 40]: the “Inhibition rate … %” value (0.1 μM) amounted to 0%.

As for `O=C(c1ccc(COc2cc(Cl)ccc2Cl)o1)N1CCCCCC1` [Compound 133], the “Inhibition rate … %” value is listed as 0% (0.1 μM), 0% (1 μM) and 0.5% (10 μM).

For the compound `O=C(O)c1ccc(COc2cc(Cl)ccc2Cl)o1` [Compound 109], the “Inhibition rate … %” value runs as follows: (0.1 μM) 0%; (1 μM) 0%.

Consider `O=Cc1ccc(COC(=O)Cc2cccc(Cl)c2)o1` [Compound 35], for which the “Inhibition rate … %” value (0.1 μM) was found to be 0%.

As to `O=C(Nc1cc(F)ccc1F)c1ccc(COc2ccccc2Cl)o1` [Compound 161], the “Inhibition rate … %” value is on record as 0% (0.1 μM) and 0% (1 μM).

As for `COC(=O)c1ccc(COc2ccc(Cl)c(C)c2)o1` [Compound 75], the “Inhibition rate … %” value (0.1 μM) stood at 0%; the “Inhibition rate … %” value (1 μM) stood at 0%; the “Inhibition rate … %” value (10 μM) is listed as 0.78%.

Turning to `CC(C)c1ccc(OCc2ccc(C(=O)O)o2)cc1` [Compound 114], the “Inhibition rate … %” value by setting is: (0.1 μM) 0%; (1 μM) 0%; (10 μM) 4.2%.

Take `O=Cc1ccc(COC(=O)Cc2ccc(F)cc2F)o1` [Compound 39]: the “Inhibition rate … %” value (0.1 μM) was determined as 0% and the “Inhibition rate … %” value (1 μM) is given as 10%.

For the compound `COc1cc([N+](=O)[O-])ccc1NC(=O)c1ccc(COc2ccc(Cl)cc2)o1` [Compound 182], the “Inhibition rate … %” value by setting is: (0.1 μM) 0%; (1 μM) 0%.
